Assays:
Rat1 = assay: Inhibition of H-ras-transformed Rat1 cells; format: functional, cell-based; conditions: Rattus norvegicus
[1] = molecular target: T1, Protein farnesyltransferase (Homo sapiens, UniProt P49354+P49356); assay: Inhibitory concentration against farnesyltransferase was determined; format: protein-complex assay
[2] = molecular target: T2, Geranylgeranyl transferase type I (Homo sapiens, UniProt P49354+P53609); assay: Inhibition binding constant Geranylgeranyl transferase type I; format: protein-complex assay
[3] = molecular target: T1, Protein farnesyltransferase; assay: Effective concentration required to inhibit HDJ2 farnesylation in PSN-1 cells; format: functional, cell-based
[4] = molecular target: T1, Protein farnesyltransferase; assay: Inhibition binding constant against Farnesyltransferase; format: protein-complex assay
[5] = molecular target: T2, Geranylgeranyl transferase type I; assay: Inhibition binding constant against Geranylgeranyl transferase type I; format: protein-complex assay
NIH3T3 = assay: Inhibition of growth of H-ras-transformed 3T3 fibroblasts

## CC[C@@H](C)[C@@H](CN(CC(=O)N[C@@H](CCSC)C(=O)OC)Cc1cccc2ccccc12)NC(=O)Cc1cncn1Cc1ccc(C#N)cc1
Rat1
  IC50: 630 nM

## CC[C@@H](C)[C@@H](CO[C@@H](Cc1ccccc1)C(=O)N[C@@H](CCS(C)(=O)=O)C(=O)O)NC[C@@H](N)S
[1]
  IC50: 1.8 nM

## COC(=O)[C@H](CC(C)C)NC(=O)c1ccc(NC[C@@H](N)CS)cc1-c1cccc2ccccc12
[2]
  IC50: 54 nM

## O=C(c1ccccc1OC(F)(F)F)N1CCN(Cc2cnc[nH]2)c2ccc(-c3ccncc3)cc2C1
[1]
  IC50: 24 nM

## N#Cc1ccc2cc1Oc1ccc3c(c1)[C@@H](CCC3)N1CC[C@@H](NCc3cncn3C2)C1=O
[1]
  IC50: < 1 nM
[3]
  EC50: 0.18 nM

## N#Cc1ccc2cc1Oc1ccc3cccc(c3c1)N1CCN(CC1=O)Cc1cncn1C2
[1]
  IC50: 0.2 nM

## CSCC[C@H](NC(=O)c1cc(NC[C@@H]2C[C@H](SC(=O)c3cccnc3)CN2)ccc1CCc1ccc(F)cc1)C(=O)OC(C)C
[4]
  Ki: < 1 nM
[5]
  Ki: 8 nM
NIH3T3
  IC50: 49 nM

## CC(=O)N1CCC(=C2c3ccc(Cl)cc3CCc3cccnc32)CC1 [SCH-37370]
[1]
  IC50: 27000 nM

From ChEMBL document CHEMBL1149326, “Inhibitors of farnesyltransferase: a rational approach to cancer chemotherapy?” (J Med Chem, 2004)
